The subject of this experiment is KB. Put plainly: Cytotoxicity against human KB cells. It counts as functional. The following applies: read-out: ED50 (the source's name).

Structures are written as SMILES. Bounds are passed on as bounds.

As for `COc1cc(C[C@H]2CO[C@H](c3ccc(OC)c(OC)c3)[C@H]2CO)ccc1O`, the EC50 was above 10 µg/mL.

Source of the values: ChEMBL document CHEMBL1151629, “Lariciresinol derivatives from Turrea nilotica and Monechma ciliatum” (1984).
